The values below come from BindingDB's records for doi:10.1016/j.bioorg.2015.05.009 (Peking University, 2015).

Glycogen synthase kinase-3 beta, sequence (P49841 whole entry): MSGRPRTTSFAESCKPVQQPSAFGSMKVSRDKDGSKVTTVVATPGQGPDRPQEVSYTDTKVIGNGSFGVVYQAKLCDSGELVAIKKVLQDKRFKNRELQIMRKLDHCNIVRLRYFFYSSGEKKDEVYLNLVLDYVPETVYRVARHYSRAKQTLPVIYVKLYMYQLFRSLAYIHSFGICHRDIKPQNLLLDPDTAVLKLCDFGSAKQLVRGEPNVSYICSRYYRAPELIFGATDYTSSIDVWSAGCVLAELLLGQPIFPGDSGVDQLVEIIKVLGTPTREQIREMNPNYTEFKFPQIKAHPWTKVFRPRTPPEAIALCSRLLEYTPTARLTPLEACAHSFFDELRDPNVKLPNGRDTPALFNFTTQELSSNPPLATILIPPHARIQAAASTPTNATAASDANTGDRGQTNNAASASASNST

This assay addresses Glycogen synthase kinase-3 beta (Homo sapiens, UniProt P49841). The assay is described as follows: Kinase-Glo Luminescent Kinase Assay. To be noted: pH 7.4. The procedure: Briefly, recombinant human GSK3β (1 µM, 10 µL) was mixed with 10 µL of GSK3β substrate ([…]pSEDEEE, 100 µM), 19 µL of 2.5 × kinase buffer (50 mM Tris-HCl, pH 7.4, 25 mM MgCl2), 10 µL of 10 µM ATP, 1 µL of the indicated amount of chemicals in DMSO to a final volume of 50 µL. Control reaction without kinase was set up. The mixtures were incubated at 30 °C for 40 min. The enzymatic reaction was stopped with 50 µL of Kinase-Glo reagent. Glow-type luminescence was recorded after 10 min.
Regarding `COc1cc2c(CNC3CCN(S(=O)(=O)c4ccc([N+](=O)[O-])cc4)CC3)cc3c(c2cc1OC)C(=O)NC3=O` [7,8-dimethoxy-5-((1-(4-nitrophenylsulfonyl)piperidin-4-ylamino)methyl)-1H-benzo[e]isoindole-1,3(2H)-dione (8c)], the IC50 amounted to 0.31 µM.
Molecule `COc1cc2c(CNC3CCN(S(=O)(=O)c4cccs4)CC3)cc3c(c2cc1OC)C(=O)NC3=O` [7,8-dimethoxy-5-((1-(thiophen-2-ylsulfonyl)piperidin-4-ylamino)methyl)-1H-benzo[e]isoindole-1,3(2H)-dione (8i)] gave an IC50 of 0.54 µM.
`COc1cc2c(CNC3CCN(S(=O)(=O)c4cccc5cccnc45)CC3)cc3c(c2cc1OC)C(=O)NC3=O` [7,8-dimethoxy-5-((1-(quinolin-8-ylsulfonyl)piperidin-4-ylamino)methyl)-1H-benzo[e]isoindole-1,3(2H)-dione (8h)] returned a 50% inhibitory concentration (IC50) of 1.53 µM.
On to `COc1cc2c(C)cc3c(c2cc1OC)C(=O)NC3=O` [7,8-Dimethoxy-5-methyl-1H-benzo[e]isoindole-1,3(2H)-dione], for which the IC50 was determined as 1.01 µM.
Next, `COc1cc2c(CNC3CCN(S(=O)(=O)c4ccc(C)cc4)CC3)cc3c(c2cc1OC)C(=O)NC3=O` [7,8-dimethoxy-5-({[1-(4-methylbenzenesulfonyl)piperidin-4-yl]amino}methyl)-1H,2H,3H-benzo[e]isoindole-1,3-dione (8a)]: 3.73 µM; `COc1ccc(S(=O)(=O)N2CCC(NCc3cc4c(c5cc(OC)c(OC)cc35)C(=O)NC4=O)CC2)cc1` [7,8-dimethoxy-5-((1-(4-methoxyphenylsulfonyl)piperidin-4-ylamino)methyl)-1H-benzo[e]isoindole-1,3(2H)-dione (8b)]: 2.61 µM; `COc1cc2c(CNC3CCN(S(=O)(=O)c4ccccc4)CC3)cc3c(c2cc1OC)C(=O)NC3=O` [7,8-dimethoxy-5-((1-(phenylsulfonyl)piperidin-4-ylamino)methyl)-1H-benzo[e]isoindole-1,3(2H)-dione (8g)]: 1.03 µM.
`COc1cc2c(CNC3CCN(S(C)(=O)=O)CC3)cc3c(c2cc1OC)C(=O)NC3=O` [7,8-dimethoxy-5-((1-(methylsulfonyl)piperidin-4-ylamino)methyl)-1H-benzo[e]isoindole-1,3(2H)-dione (8d)] registered an IC50 of 0.36 µM.
Next, `COc1cc2c(CNC3CCN(S(=O)(=O)c4ccccc4[N+](=O)[O-])CC3)cc3c(c2cc1OC)C(=O)NC3=O` [7,8-dimethoxy-5-((1-(2-nitrophenylsulfonyl)piperidin-4-ylamino)methyl)-1H-benzo[e]isoindole-1,3(2H)-dione (8f)]: 0.53 µM; `COc1cc2c(CNC3CCN(S(=O)(=O)c4ccc(C(F)(F)F)cc4)CC3)cc3c(c2cc1OC)C(=O)NC3=O` [7,8-dimethoxy-5-((1-(4-(trifluoromethyl)phenylsulfonyl)piperidin-4-ylamino)methyl)-1Hbenzo[e]isoindole-1,3 (2H)-dione (8e)]: 0.53 µM.
